# Laboratory results taken from patent publication US6555676B2, “Biologically active phosphotriester-type compounds” (Centre National de la Recherche Scientifique, priority 1992, dated 2003).
# Read-outs that look alike come from different tables or passages of the source.
# Key:
# [1] = target: reverse transcriptase (Human immunodeficiency virus type 1 group M subtype B, UniProt P04585); details: cited from earlier work
# [2] = test system: non-infected CEM-SS cells; assay: Toxic effect on non-infected cells (MTT/formazan), CEM-SS; format: cell-based, Human; details: 50% inhibition of formazan formation, 5 days
# Description: (§1) The toxic effect on non-infected CEMs is assessed by a calorimetric reaction based on the capacity of living cells to reduce 3-(4,5-dimethylthiazol-2-yl)-2,5-diphenyltetrazolium bromide into formazan after incubation for 5 days in the presence of various concentrations of the compounds.
# [3] = test system: non-infected CEM-TK− cells; assay: Toxic effect on non-infected cells (MTT/formazan), CEM-TK−; format: cell-based, Human; details: 50% inhibition of formazan formation, 5 days
# Description: as §1
# [4] = test system: HIV-1 (LAI isolate); assay: Anti-HIV-1 activity (RTase in culture supernatant) in CEM-TK− cells; format: cell-based; details: for EC50: CEM-TK− cells, lowest concentration reducing RTase production by at least 50%, 5 days, read-out: ED50 (the source's name)
# Description: (§2) HIV-1 replication (LAI isolate) in CEM cells is measured by assaying the reverse transcriptase (RTase) in the culture supernatant after infection for 5 days. This activity reflects the presence of the virus released by the cells. After adsorption of the virus, the test compounds are added, at various concentrations, to the culture medium.
# (§3) Antiviral activity is expressed as the lowest concentration of compound which reduces the production of RTase by at least 50% (ED50)
# (§4) The compounds were tested as described in Example 5 above.
# (§5) The iso-SATE pronucleotides of Examples 16A and 16B were evaluated for their inhibitory effects on the replication of HIV-1 in CEM-SS and in thymidine-kinase deficient cell lines (CEM/TD). For comparison, the parent nucleosides ddA and d4T, and the corresponding bis(SATE) phosphotriesters bis(tBuSATE)ddAMP (the compound of Example 9) and bis(tBuSATE)d4TMP, were evaluated in the same experiments.
# [5] = test system: non-infected MT-4 cells; assay: Toxic effect on non-infected cells (MTT/formazan), MT-4; format: cell-based, Human; details: 50% inhibition of formazan formation
# [6] = format: in vitro ADME, Human
# Description: (§6) The “ISRP on line” HPLC technique (“On-line Internal Surface Reversed-Phase Cleaning: The Direct HPLC Analysis of Crude Biological Samples”, A. Pompon, I. Lefebvre and J. L. Imbach, Biochemical Pharmacology, 43,1769-1775 (1992) was used for this study, the compound studied being incubated respectively in culture medium (RPMI/10% inactivated serum) and in a total cell extract (CEM).
# (§7) Certain kinetic studies comparing the compound of Example 16A, i.e., S,S′-bis(O-pivaloyl-2-oxyethyl) O-2, 3-dideoxyadenosin-5′-yl phosphorodithiolate, also designated as iso[Bis(SATE)ddA] and its isosteric compound of Example 9, i.e., O-(2′,3′-dideoxyadenosin-5′-yl)-O,O′-bis([…]) phosphate, also designated as [Bis(SATE)ddAMP] were effected. The kinetic were studies were performed in culture medium (RPMI containing […] heat-inactivated fetal calf serum) in order to evaluate the stability of the pronucleotides in the extracellular medium used for antiviral evaluation in cell culture systems, and in total cell extracts that mimic the behavior of the compounds inside cells. The “on-line ISPR cleaning” HPLC method of Lefebvre et al., J. Med. Chem., 38, 3941-3950, 1995, were used for the studies. The products resulting from the decomposition were characterized by co-injection with authentic samples and/or by coupled HPLC/Mass Spectroscopy. The kinetics of transformation of the two isomeric pronucleotides strongly differed according to the medium. In culture medium the first iso-SATE group was cleaved in 38.5 hr whereas the first SATE group was cleaved in 165 hr. The second iso-SATE group was cleaved in 5.8 hr whereas the second SATE group was cleaved in 46 hr. In total cell extracts, the first iso-SATE group was cleaved in 5.3 hr whereas the SATE group was cleaved in 1 hr.
# [7] = format: in vitro ADME
# Description: as §6, §7
# [8] = test system: HIV-1 (LAI isolate); assay: Anti-HIV-1 activity (RTase in culture supernatant) in CEM-SS cells; format: cell-based; details: lowest concentration reducing RTase production by at least 50%, 5 days, read-out: ED50 (the source's name)
# Description: as §2, §3, §4, §5
# [9] = test system: HIV-1; assay: Anti-HIV-1 activity in MT-4 cells; format: cell-based, Human immunodeficiency virus; details: for EC50: read-out: ED50 (the source's name)
# Description: as §2, §3, §4
# [10] = culture medium (RPMI with heat-inactivated fetal calf serum)
Compound,CD50 [2],CD50 [3],EC50 [4],CD50 [5],EC50 [8],further results
"O=c1ccn([C@H]2CC[C@@H](COP(=O)(O)OP(=O)(O)OP(=O)(O)O)O2)c(=O)[nH]1 [2′,3′-Dideoxyuridine 5′-triphosphate]",,,,,,inhibition of reverse transcriptase (in words) [1]: excellent inhibitor
"Cc1cn([C@H]2C[C@H](N=[N+]=[N-])[C@@H](CO)O2)c(=O)[nH]c1=O [AZT, 3′-azido-2′,3,-dideoxythymidine, reference compound]",(CD50 > 10^−4 M),(CD50 > 10^−4 M),> 100 µM,(CD50 > 10^−4 M),,
"CC(=O)SCCOP(=O)(OCCSC(C)=O)OC[C@@H]1CC[C@H](n2cnc3c(N)ncnc32)O1 [Bis(SATE)ddAMP, O-(2′,3′-Dideoxyadenosin-5′-yl)—O,O′-bis(S-acetyl-2-thioethyl)-phosphate]",,(CD50 > 10^−5 M),,,,time in which the first (iso-)SATE group was cleaved [6]: 1 h; time in which the first (iso-)SATE group was cleaved [7]: 165 h; time in which the second (iso-)SATE group was cleaved [7]: 46 h
"CC(=O)SCCOP(=O)(OCCSC(C)=O)OC[C@@H]1CC[C@H](n2cnc3c(=O)[nH]cnc32)O1 [Bis(SATE)ddIMP, O-(2′,3″ -Dideoxyinosin-5′-yl)-O,O′-bis(S-acetyl-2-thioethyl)-phosphate]",(CD50 > 10^−4 M),(CD50 > 10^−4 M),,(CD50 > 10^−4 M),,
"CC(=O)SCCOP(=O)(OCCSC(C)=O)OC[C@@H]1CC[C@H](n2cc(C)c(=O)[nH]c2=O)O1 [Bis(SATE)ddTMP, O-(2′,3′-Dideoxythymidin-5′-yl)-O,O′-bis(S-acetyl-2-thioethyl)-phosphate]",,(CD50 > 10^−4 M),,,,
"CC(=O)SCCOP(=O)(OCCSC(C)=O)OC[C@@H]1CC[C@H](n2ccc(=O)[nH]c2=O)O1 [Compound 1, O-(2′,3′-dideoxyuridin-5′-yl)-O,O′-bis(S-acetyl-2-thioethyl)phosphate]",(CD50 9 · 10^−5 M),(CD50 7 · 10^−5 M),4 µM,(CD50 9 · 10^−5 M),5 µM,ED50 [9]: 2 · 10^−6 M
"O=c1ccn([C@H]2CC[C@@H](COP(=O)(OCCSSCCO)OCCSSCCO)O2)c(=O)[nH]1 [Compound 2, O,O′-Bis(S-(2-hydroxyethylsufidyl)-2-thioethyl)-o-(2′,3′-dideoxyuridin-5′-yl)phosphate]",(CD50 10^−4 M),(CD50 8 · 10^−5 M),8 µM,,60 µM,half-life in cell extract ([6]; total cell extract (CEM)): less than 5 minutes; half-life in culture medium ([7]; RPMI/10% inactivated serum): 9 h
"Cc1cn([C@H]2C[C@H](N=[N+]=[N-])[C@@H](COP(=O)(OCCSSCCO)OCCSSCCO)O2)c(=O)[nH]c1=O [Compound 3, O,O′-Bis(S-(2-hydroxyethylsufidyl)-2-thioethyl)-O-(3′azido-3′-deoxythymidin-5′-yl)phosphate]",(CD50 8 · 10^−5 M),(CD50 8 · 10^−5 M),7 µM,(CD50 8 · 10^−5 M),0.0007 µM,EC50 [9]: 0.001 µM
Nc1ncnc2c1ncn2CCOCP(=O)(OCCSSCCO)OCCSSCCO [Compound 4],(CD50 > 10^−4 M),(CD50 4 · 10^−5 M),0.08 µM,(CD50 2 · 10^−5 M).,3 µM,EC50 [9]: 0.8 µM
"Cc1cn([C@H]2C=C[C@@H](CO)O2)c(=O)[nH]c1=O [d4T, reference compound]",,,,,,"anti-HIV-1 activity (in words, FIG. 10) ([4]; thymidine-kinase deficient CEM cells): weakly active"
"Nc1ncnc2c1ncn2[C@H]1CC[C@@H](CO)O1 [ddA, reference compound]",(CD50 > 10^−4 M),(CD50 > 10^−4 M),,(CD50 > 10^−4 M),,EC50 [9]: 10 µM
"O=c1[nH]cnc2c1ncn2[C@H]1CC[C@@H](CO)O1 [ddI, reference compound]",(CD50 > 10^−4 M),(CD50 > 10^−4 M),,(CD50 > 10^−4 M),,
"CC(C)(C)C(=O)OCCSP(=O)(OC[C@@H]1CC[C@H](n2cnc3c(N)ncnc32)O1)SCCOC(=O)C(C)(C)C [iso[Bis(SATE)ddA], S,S′-bis (Ö-pivaloyl-2-oxyethyl) O2′,3′-dideoxyadenosin-5′-yl phosphorodithiolate]",,,,,,"time in which the first (iso-)SATE group was cleaved ([6]; total cell extracts): 5.3 h; time in which the first (iso-)SATE group was cleaved [7, 10]: 38.5 h; time in which the second (iso-)SATE group was cleaved [7, 10]: 5.8 h"
